Reference: article PMC5218480 (PLoS ONE, 2017)

Tested on: MV-4-11 cells
Experiment: Gene expression microarray analysis (Affymetrix PrimeView) and GSEA
Assay type: cell-based, human
Parameters: RFU PODN (11730768_x_at) / Fold change /veh PODN (11730768_x_at) / RFU LINC00158 (11744669_a_at) / Fold change /veh LINC00158 (11744669_a_at) / RFU DUSP10 (11751237_a_at) / Fold change /veh DUSP10 (11751237_a_at) / RFU ID3 (11757404_x_at) / Fold change /veh ID3 (11757404_x_at) / RFU PLEKHG5 (11737974_s_at) / Fold change /veh PLEKHG5 (11737974_s_at) / RFU LRRC4B (11730491_at) / Fold change /veh LRRC4B (11730491_at) / RFU GIMAP4 (11747438_a_at) / Fold change /veh GIMAP4 (11747438_a_at) / RFU KRT8 (11758183_x_at) / Fold change /veh KRT8 (11758183_x_at) / RFU CNN1 (11734310_a_at) / Fold change /veh CNN1 (11734310_a_at) / RFU VPS37D (11726825_at) / Fold change /veh VPS37D (11726825_at) / RFU C10orf10 (11716522_x_at) / Fold change /veh C10orf10 (11716522_x_at) / RFU KIR2DL2 /// KIR2DL4 /// KIR2DL5A /// KIR2DL5B /// KIR2DS1 /// KIR2DS2 /// KIR2DS3 /// KIR2DS4 /// KIR3DL3 /// KIR3DL3 /// KIR3DS1 (11738374_at) / Fold change /veh KIR2DL2 /// KIR2DL4 /// KIR2DL5A /// KIR2DL5B /// KIR2DS1 /// KIR2DS2 /// KIR2DS3 /// KIR2DS4 /// KIR3DL3 /// KIR3DL3 /// KIR3DS1 (11738374_at) / RFU C1QL1 (11718748_at) / Fold change /veh C1QL1 (11718748_at) / RFU TMPRSS4 (11747572_a_at) / Fold change /veh TMPRSS4 (11747572_a_at) / RFU HAMP (11756126_x_at) / Fold change /veh HAMP (11756126_x_at) / RFU RNFT2 (11725882_a_at) / Fold change /veh RNFT2 (11725882_a_at) / RFU NR4A2 (11747474_a_at) / Fold change /veh NR4A2 (11747474_a_at) / RFU ABCC12 (11746883_a_at) / Fold change /veh ABCC12 (11746883_a_at) / RFU TMEM136 (11760407_x_at) / Fold change /veh TMEM136 (11760407_x_at) / RFU CLDN22 /// WWC2 (11732394_at) / Fold change /veh CLDN22 /// WWC2 (11732394_at) / RFU HLA-DPB1 (11760878_x_at) / Fold change /veh HLA-DPB1 (11760878_x_at) / RFU SPINT1 (11716480_a_at) / Fold change /veh SPINT1 (11716480_a_at) / RFU GAP43 (11754022_s_at) / Fold change /veh GAP43 (11754022_s_at) / RFU A4GNT (11735810_at) / Fold change /veh A4GNT (11735810_at) / RFU PRB3 (11715151_x_at) / Fold change /veh PRB3 (11715151_x_at) / RFU TUBB4B (11761932_at) / Fold change /veh TUBB4B (11761932_at) / RFU CAPN14 (11732068_a_at) / Fold change /veh CAPN14 (11732068_a_at) / RFU TMCC2 (11721928_a_at) / Fold change /veh TMCC2 (11721928_a_at) / RFU IRGQ (11745062_a_at) / Fold change /veh IRGQ (11745062_a_at) / RFU FAM174B (11720279_a_at) / Fold change /veh FAM174B (11720279_a_at) / RFU TMPRSS4 (11748680_a_at) / Fold change /veh TMPRSS4 (11748680_a_at) / RFU FAM212B (11763350_a_at) / Fold change /veh FAM212B (11763350_a_at) / RFU PLEKHG5 (11743358_a_at) / Fold change /veh PLEKHG5 (11743358_a_at) / RFU ZSCAN30 (11745921_a_at) / Fold change /veh ZSCAN30 (11745921_a_at) / RFU CMKLR1 (11741424_a_at) / Fold change /veh CMKLR1 (11741424_a_at) / RFU LOC101060620 /// MAPK8IP1 (11723275_at) / Fold change /veh LOC101060620 /// MAPK8IP1 (11723275_at) / RFU SPTSSB (11747773_x_at) / Fold change /veh SPTSSB (11747773_x_at) / RFU PRSS12 (11739890_at) / Fold change /veh PRSS12 (11739890_at) / RFU BIN1 (11741810_x_at) / Fold change /veh BIN1 (11741810_x_at) / RFU WNT11 (11732464_a_at) / Fold change /veh WNT11 (11732464_a_at) / RFU C10orf10 (11716521_a_at) / Fold change /veh C10orf10 (11716521_a_at) / RFU C5orf56 (11738089_at) / Fold change /veh C5orf56 (11738089_at) / RFU CYB561 (11721691_x_at) / Fold change /veh CYB561 (11721691_x_at) / RFU ANKRD19P (11752326_a_at) / Fold change /veh ANKRD19P (11752326_a_at) / RFU OR2T12 /// OR2T33 /// OR2T8 (11738714_s_at) / Fold change /veh OR2T12 /// OR2T33 /// OR2T8 (11738714_s_at) / RFU VCAN (11748164_a_at) / Fold change /veh VCAN (11748164_a_at) / RFU JSRP1 (11732532_at) / Fold change /veh JSRP1 (11732532_at) / RFU KRTAP10-11 (11738290_x_at) / Fold change /veh KRTAP10-11 (11738290_x_at) / RFU MYO3A (11730013_a_at) / Fold change /veh MYO3A (11730013_a_at) / RFU EBF3 (11725865_a_at) / Fold change /veh EBF3 (11725865_a_at) / RFU CAMK2N1 (11719241_x_at) / Fold change /veh CAMK2N1 (11719241_x_at) / RFU C5orf56 (11738088_a_at) / Fold change /veh C5orf56 (11738088_a_at) / RFU OLFML3 (11715873_a_at) / Fold change /veh OLFML3 (11715873_a_at) / RFU LOC100653217 /// NTM (11731650_a_at) / Fold change /veh LOC100653217 /// NTM (11731650_a_at) / RFU MAPK11 (11762145_a_at) / Fold change /veh MAPK11 (11762145_a_at) / RFU FIZ1 (11724087_x_at) / Fold change /veh FIZ1 (11724087_x_at) / RFU OASL (11726364_x_at) / Fold change /veh OASL (11726364_x_at) / RFU SOX15 (11748057_x_at) / Fold change /veh SOX15 (11748057_x_at) / RFU CD79A (11719716_a_at) / Fold change /veh CD79A (11719716_a_at) / RFU HIST1H1D (11736915_at) / Fold change /veh HIST1H1D (11736915_at) / RFU CASKIN2 (11723855_a_at) / Fold change /veh CASKIN2 (11723855_a_at) / RFU LOC730098 (11760151_x_at) / Fold change /veh LOC730098 (11760151_x_at) / RFU OR4N2 (11742367_at) / Fold change /veh OR4N2 (11742367_at) / RFU PRRT2 (11749266_a_at) / Fold change /veh PRRT2 (11749266_a_at) / RFU SNX32 (11753110_a_at) / Fold change /veh SNX32 (11753110_a_at) / RFU CDHR5 (11726645_a_at) / Fold change /veh CDHR5 (11726645_a_at) / RFU RCAN1 (11760418_a_at) / Fold change /veh RCAN1 (11760418_a_at) / RFU FAM167A (11723789_a_at) / Fold change /veh FAM167A (11723789_a_at) / RFU FAM26E (11764081_at) / Fold change /veh FAM26E (11764081_at) / RFU ISYNA1 (11749810_s_at) / Fold change /veh ISYNA1 (11749810_s_at) / RFU ACY1 (11761880_at) / Fold change /veh ACY1 (11761880_at) / RFU 11764098_at / Fold change /veh 11764098_at / RFU SAMD14 (11745864_x_at) / Fold change /veh SAMD14 (11745864_x_at) / RFU NPB (11741838_a_at) / Fold change /veh NPB (11741838_a_at) / RFU TMPRSS6 (11731388_a_at) / Fold change /veh TMPRSS6 (11731388_a_at) / RFU KRTAP10-2 (11738614_at) / Fold change /veh KRTAP10-2 (11738614_at) / RFU ARHGAP8 /// PRR5-ARHGAP8 (11727945_x_at) / Fold change /veh ARHGAP8 /// PRR5-ARHGAP8 (11727945_x_at) / RFU KRTAP5-7 /// NADSYN1 (11734609_at) / Fold change /veh KRTAP5-7 /// NADSYN1 (11734609_at) / RFU RASL12 (11751679_a_at) / Fold change /veh RASL12 (11751679_a_at) / RFU CDKN2B (11736163_a_at) / Fold change /veh CDKN2B (11736163_a_at) / RFU PRF1 (11729649_at) / Fold change /veh PRF1 (11729649_at) / RFU, ZNF638 /// ZNF638-IT1 / Fold change vs veh, ZNF638 /// ZNF638-IT1 / RFU, PANK3 / Fold change vs veh, PANK3 / RFU, SH3YL1 / Fold change vs veh, SH3YL1 / RFU, ZEB2 / Fold change vs veh, ZEB2 / RFU, NRIP1 / Fold change vs veh, NRIP1 / RFU, PTTG1IP / Fold change vs veh, PTTG1IP / RFU, CAPN2 / Fold change vs veh, CAPN2 / RFU, MED14 / Fold change vs veh, MED14 / RFU, SNORA58 / Fold change vs veh, SNORA58 / RFU, C1orf63 / Fold change vs veh, C1orf63 / RFU, LRRFIP1 / Fold change vs veh, LRRFIP1 / RFU, NDUFAF7 / Fold change vs veh, NDUFAF7 / RFU, SLC12A2 / Fold change vs veh, SLC12A2 / RFU, IBTK / Fold change vs veh, IBTK / RFU, ESF1 / Fold change vs veh, ESF1 / Fold change vs veh, TMEM50B / RFU, TAOK1 / Fold change vs veh, TAOK1 / RFU, ACBD3 / Fold change vs veh, ACBD3 / RFU, TMA16 / Fold change vs veh, TMA16 / RFU, RWDD3 / Fold change vs veh, RWDD3 / RFU, BCAT1 / Fold change vs veh, BCAT1 / RFU, EDEM3 / Fold change vs veh, EDEM3 / RFU, TMEM33 / Fold change vs veh, TMEM33 / RFU, WDR75 / Fold change vs veh, WDR75 / RFU, AHCTF1 / Fold change vs veh, AHCTF1 / RFU, TFRC / Fold change vs veh, TFRC / RFU, ZDHHC17 / Fold change vs veh, ZDHHC17 / RFU, NOM1 / Fold change vs veh, NOM1 / RFU, ARL8B / Fold change vs veh, ARL8B / RFU, ZBTB11 / Fold change vs veh, ZBTB11 / RFU, TAMM41 / Fold change vs veh, TAMM41 / RFU, KIAA1704 /// LOC100996395 / Fold change vs veh, KIAA1704 /// LOC100996395 / RFU, ING1 / Fold change vs veh, ING1 / RFU, TRMT61B / Fold change vs veh, TRMT61B / RFU, FUBP3 / Fold change vs veh, FUBP3 / RFU, TP53 / Fold change vs veh, TP53 / RFU, TNKS2 / Fold change vs veh, TNKS2 / RFU, ZFP14 / Fold change vs veh, ZFP14 / RFU, ACTR2 / Fold change vs veh, ACTR2 / RFU, PPP3R1 / Fold change vs veh, PPP3R1 / RFU, PIK3R1 / Fold change vs veh, PIK3R1 / RFU, HNRNPA1 / Fold change vs veh, HNRNPA1 / RFU, RNF170 / Fold change vs veh, RNF170 / RFU, ZNF28 / Fold change vs veh, ZNF28 / RFU, RNGTT / Fold change vs veh, RNGTT / RFU, OGT / Fold change vs veh, OGT / RFU, BRD1 / Fold change vs veh, BRD1 / RFU, MARS / Fold change vs veh, MARS / RFU, ZNF655 / Fold change vs veh, ZNF655 / RFU, FAHD1 / Fold change vs veh, FAHD1 / RFU, BDP1 / Fold change vs veh, BDP1 / RFU, LRRCC1 / Fold change vs veh, LRRCC1 / RFU, ARID1A / Fold change vs veh, ARID1A / RFU, ZNF146 / Fold change vs veh, ZNF146 / RFU, ZNF330 / Fold change vs veh, ZNF330 / RFU, GPN3 / Fold change vs veh, GPN3 / RFU, C9orf123 / Fold change vs veh, C9orf123 / RFU, N4BP2L2 / Fold change vs veh, N4BP2L2 / RFU, ARFIP1 / Fold change vs veh, ARFIP1 / RFU, FAM179B / Fold change vs veh, FAM179B / RFU, BCL10 / Fold change vs veh, BCL10 / RFU, UHRF1BP1L / Fold change vs veh, UHRF1BP1L / RFU, BET1 / Fold change vs veh, BET1 / RFU, CNOT2 / Fold change vs veh, CNOT2 / RFU, ZNF268 / Fold change vs veh, ZNF268 / Fold change vs veh, ZNF507 / RFU, DGCR2 / Fold change vs veh, DGCR2 / RFU, WDSUB1 / Fold change vs veh, WDSUB1 / Fold change vs veh, HSP90B1 /// MIR3652 / RFU, ADSS / Fold change vs veh, ADSS / RFU, GK / Fold change vs veh, GK / RFU, ZNF148 / Fold change vs veh, ZNF148 / RFU, TAF9 / Fold change vs veh, TAF9 / RFU, SLC1A5 / Fold change vs veh, SLC1A5 / RFU, SLMO2 / Fold change vs veh, SLMO2 / RFU, ABCC4 / Fold change vs veh, ABCC4 / RFU, LOC101060439 /// RAP1B / Fold change vs veh, LOC101060439 /// RAP1B / RFU, RFX7 / Fold change vs veh, RFX7 / RFU, GTPBP10 / Fold change vs veh, GTPBP10 / RFU, CNEP1R1 / Fold change vs veh, CNEP1R1 / RFU, BIVM-ERCC5 /// ERCC5 / Fold change vs veh, BIVM-ERCC5 /// ERCC5 / RFU, ILF3 / Fold change vs veh, ILF3 / RFU 11762660_at / Fold change /veh 11762660_at / RFU VCAN (11757783_s_at) / Fold change /veh VCAN (11757783_s_at) / RFU DDX43 (11728927_at) / Fold change /veh DDX43 (11728927_at) / RFU KRT8 (11758188_x_at) / Fold change /veh KRT8 (11758188_x_at) / RFU NKD1 (11759106_at) / Fold change /veh NKD1 (11759106_at) / RFU SRD5A1 (11742802_a_at) / Fold change /veh SRD5A1 (11742802_a_at) / RFU TPSAB1 /// TPSB2 (11721975_s_at) / Fold change /veh TPSAB1 /// TPSB2 (11721975_s_at) / RFU GSTM3 (11746129_a_at) / Fold change /veh GSTM3 (11746129_a_at) / RFU IL23R (11737362_x_at) / Fold change /veh IL23R (11737362_x_at) / RFU TMEM51 (11727254_a_at) / Fold change /veh TMEM51 (11727254_a_at) / RFU PIWIL2 (11732686_x_at) / Fold change /veh PIWIL2 (11732686_x_at) / RFU ORM1 (11744905_x_at) / Fold change /veh ORM1 (11744905_x_at) / RFU CCDC152 (11743942_at) / Fold change /veh CCDC152 (11743942_at) / RFU ECM1 (11717891_a_at) / Fold change /veh ECM1 (11717891_a_at) / RFU IL23R (11748794_a_at) / Fold change /veh IL23R (11748794_a_at) / RFU TNFAIP8L3 (11732012_x_at) / Fold change /veh TNFAIP8L3 (11732012_x_at) / RFU MBOAT4 (11741988_at) / Fold change /veh MBOAT4 (11741988_at) / RFU 11764193_at / Fold change /veh 11764193_at / RFU TMEM53 (11763286_at) / Fold change /veh TMEM53 (11763286_at) / RFU MAGEB2 (11727129_at) / Fold change /veh MAGEB2 (11727129_at) / RFU TMEM200A (11744735_a_at) / Fold change /veh TMEM200A (11744735_a_at) / RFU CCDC152 (11751479_a_at) / Fold change /veh CCDC152 (11751479_a_at) / RFU FAM211A (11726209_a_at) / Fold change /veh FAM211A (11726209_a_at) / RFU RGS16 (11746705_a_at) / Fold change /veh RGS16 (11746705_a_at) / RFU VCAN (11755009_s_at) / Fold change /veh VCAN (11755009_s_at) / RFU RHOB (11743442_s_at) / Fold change /veh RHOB (11743442_s_at) / RFU RGS16 (11720943_a_at) / Fold change /veh RGS16 (11720943_a_at) / RFU RGS16 (11720944_at) / Fold change /veh RGS16 (11720944_at) / RFU, VPS4B / Fold change vs veh, VPS4B / RFU, CREB1 / Fold change vs veh, CREB1 / RFU, DNAJC13 / Fold change vs veh, DNAJC13 / RFU, GNAQ / Fold change vs veh, GNAQ / RFU, CDK5R1 / Fold change vs veh, CDK5R1 / RFU, ZRANB3 / Fold change vs veh, ZRANB3 / RFU, CUL4A / Fold change vs veh, CUL4A / RFU, CCNY / Fold change vs veh, CCNY / RFU, UFL1 / Fold change vs veh, UFL1 / RFU, COG3 / Fold change vs veh, COG3 / RFU, DIAPH2 / Fold change vs veh, DIAPH2 / RFU, SKA2 / Fold change vs veh, SKA2 / RFU, AFF3 / Fold change vs veh, AFF3 / RFU, LMF1 / Fold change vs veh, LMF1 / RFU, IPO11 / Fold change vs veh, IPO11 / RFU, DFFB / Fold change vs veh, DFFB / RFU, FOXP1 / Fold change vs veh, FOXP1 / RFU, CARD8 / Fold change vs veh, CARD8 / RFU, STRN3 / Fold change vs veh, STRN3 / RFU, ADK / Fold change vs veh, ADK / RFU, RASSF2 / Fold change vs veh, RASSF2 / RFU, WIPF1 / Fold change vs veh, WIPF1 / RFU, LARP1B / Fold change vs veh, LARP1B / RFU, RASA1 / Fold change vs veh, RASA1 / RFU, RB1 / Fold change vs veh, RB1 / RFU, PPFIA1 / Fold change vs veh, PPFIA1 / RFU, MAT2A / Fold change vs veh, MAT2A / RFU, CCT5 / Fold change vs veh, CCT5 / RFU, WDR92 / Fold change vs veh, WDR92 / RFU, CUX1 / Fold change vs veh, CUX1 / RFU, TTC7A / Fold change vs veh, TTC7A / RFU, TMEM135 / Fold change vs veh, TMEM135 / RFU, DEPTOR / Fold change vs veh, DEPTOR / RFU, CPM / Fold change vs veh, CPM / RFU, DNAJB6 / Fold change vs veh, DNAJB6 / RFU, CACNA2D3 / Fold change vs veh, CACNA2D3 / RFU, DTX4 / Fold change vs veh, DTX4 / RFU, TFCP2 / Fold change vs veh, TFCP2 / RFU, GMCL1 /// GMCL1P1 / Fold change vs veh, GMCL1 /// GMCL1P1 / RFU, AEBP2 / Fold change vs veh, AEBP2 / RFU, SNHG1 /// SNORD22 /// SNORD25 /// SNORD26 /// SNORD27 /// SNORD28 /// SNORD29 /// SNORD31 / Fold change vs veh, SNHG1 /// SNORD22 /// SNORD25 /// SNORD26 /// SNORD27 /// SNORD28 /// SNORD29 /// SNORD31 / Fold change (Aza/veh), C12orf56 (ProbeSet 11735607_a_at) / Fold change (ACY-1035/veh), C12orf56 (ProbeSet 11735607_a_at) / Fold change (Aza/veh), FGFR1OP (ProbeSet 11751329_s_at) / Fold change (ACY-1035/veh), FGFR1OP (ProbeSet 11751329_s_at) / Fold change (Aza/veh), VPS36 (ProbeSet 11739960_a_at) / Fold change (ACY-1035/veh), VPS36 (ProbeSet 11739960_a_at) / RFU SYPL1 (11715823_x_at) / Fold change /veh SYPL1 (11715823_x_at) / RFU IGFBP7 (11715501_s_at) / Fold change /veh IGFBP7 (11715501_s_at) / RFU REEP3 (11722064_at) / Fold change /veh REEP3 (11722064_at) / RFU IGLL1 (11728026_x_at) / Fold change /veh IGLL1 (11728026_x_at): dose or concentration left out as unconfirmed
Details: MV-4-11 cells, 48 hours

Nc1ncn([C@@H]2O[C@H](CO)[C@@H](O)[C@H]2O)c(=O)n1 [azacitidine]
RFU CDHR5 (11726645_a_at): 45.99 RFU
